≈ marks a conversion by molar mass, not a printed value. Calls of active or inactive are those of the source. The calls are words filed in the database; no cut-off is given here. Where only a bound is given, the exact number is not on record here.

The test system of test [1] is Bacillus subtilis. Briefly: microbe, parasite or virus in culture. In kind it is functional. Particulars: MTCC 121, 24 h, read-out: DIZ.
Description: Antimicrobial activity against Bacillus subtilis MTCC 121 at 2 mg/ml after 24 hr by agar well diffusion method
Test [2] concerns Staphylococcus aureus. Nature of the test: Antimicrobial activity against Staphylococcus aureus MTCC 96 at 2 mg/ml after 24 hr by agar well diffusion method. In kind it is functional. Particulars: MTCC 96, 24 h, read-out: DIZ. (In agar diffusion tests the substance spreads into inoculated agar from a disc or well.)
The subject of test [3] is Bacillus subtilis. Nature of the test: microbe, parasite or virus in culture. Particulars: MTCC 121, 24 h. In kind it is functional.
Description: Antimicrobial activity against Bacillus subtilis MTCC 121 at 2 mg/ml after 24 hr by two-fold serial dilution method
Test [4] relates to Staphylococcus aureus. Nature of the test: Antimicrobial activity against Staphylococcus aureus MTCC 96 after 24 hr by two-fold serial dilution method. In kind it is functional. Particulars: MTCC 96, 24 h.
Test [5] has as its system Candida albicans. Nature of the test: Antimicrobial activity against Candida albicans MTCC 227 at 2 mg/ml by two-fold serial dilution method. It counts as functional.
Test [6] deals with Saccharomyces cerevisiae. Nature of the test: Antimicrobial activity against Saccharomyces cerevisiae MTCC 170 at 2 mg/ml after 24 hr by agar well diffusion method. In kind it is functional. Particulars: for zone of inhibition at 2000 µg/mL: MTCC 170, 24 h, read-out: DIZ.
In test [7] the test system is Saccharomyces cerevisiae. Nature of the test: Antimicrobial activity against Saccharomyces cerevisiae MTCC 170 after 24 hr by two-fold serial dilution method. It counts as functional.
In test [8] the test system is Candida albicans. Briefly: Antimicrobial activity against Candida albicans MTCC 227 at 2 mg/ml by agar well diffusion method. Particulars: for zone of inhibition at 2000 µg/mL: read-out: DIZ. It counts as functional.
The next test has as its system Escherichia coli. Nature of the test: Antimicrobial activity against Escherichia coli MTCC 1652 at 2 mg/ml after 24 hr by agar well diffusion method. It counts as functional, organism-based.
Another test concerns Pseudomonas aeruginosa. Briefly: Antimicrobial activity against Pseudomonas aeruginosa MTCC 741 at 2 mg/ml after 24 hr by agar well diffusion method. It counts as functional, organism-based.

Take `O=C(O)c1cn(C2CC2)c2cc(N3CCNCC3)c(F)cc2c1=O` [CIPROFLOXACIN]: the zone of inhibition at 2000 µg/mL with Bacillus subtilis [1] is 24 mm; in the test with Staphylococcus aureus [2] it was 26.6 mm. Besides, the MIC against Bacillus subtilis [3] and against Staphylococcus aureus [4] was 5 µg/mL (≈ 15.1 µM) each time.

Consider `CCCc1nnc2n1N=C(c1ccccc1)C(OCC)S2` (stereo not drawn), for which the zone of inhibition at 2000 µg/mL in the test on Bacillus subtilis [1] was 17.6 mm; in the test with Staphylococcus aureus [2], 13.6 mm. Also, the MIC result in the test with Candida albicans [5] and in the test with Saccharomyces cerevisiae [7] was “inactive” in each case. The “diameter of the inhibition zone (DIZ)” value in the test on Saccharomyces cerevisiae [6] and in the test on Candida albicans [8] was “inactive” in each case. In addition, the MIC in the test on Bacillus subtilis [3] is 128 µg/mL (≈ 423 µM); in the test with Staphylococcus aureus [4], 256 µg/mL (≈ 847 µM). Further, the result in the test with Escherichia coli and in the test on Pseudomonas aeruginosa was inactive.

For the compound `CCc1nnc2n1N=C(c1ccccc1)C(OC)S2` (stereo not drawn), the zone of inhibition at 2000 µg/mL came to 21.6 mm with Bacillus subtilis [1], 15.3 mm with Saccharomyces cerevisiae [6], 22.3 mm in the test on Staphylococcus aureus [2] and 16.3 mm in the test with Candida albicans [8]. Besides, the MIC was 64 µg/mL (≈ 233 µM) against Candida albicans [5]; 64 µg/mL (≈ 233 µM) with Saccharomyces cerevisiae [7] (MTCC 170, 24 h); 32 µg/mL (≈ 117 µM) against Bacillus subtilis [3]; 32 µg/mL (≈ 117 µM) in the test with Staphylococcus aureus [4]. The outcome in the test on Escherichia coli and in the test on Pseudomonas aeruginosa was inactive.

With `CCCc1nnc2n1N=C(c1ccccc1)C(OC(C)C)S2` (stereo not drawn), the zone of inhibition at 2000 µg/mL in the test with Bacillus subtilis [1] turned out to be 14.6 mm; in the test on Staphylococcus aureus [2], 12.3 mm. For the same compound, the MIC entry in the test with Candida albicans [5] and in the test on Saccharomyces cerevisiae [7] was “inactive” throughout. Further, the “diameter of the inhibition zone (DIZ)” value in the test with Saccharomyces cerevisiae [6] and in the test on Candida albicans [8] was “inactive” each time. For the same compound, the MIC is 256 µg/mL (≈ 809 µM) in the test on Bacillus subtilis [3] and above 256 µg/mL against Staphylococcus aureus [4]. For the same compound, the result in the test on Escherichia coli and in the test on Pseudomonas aeruginosa was inactive.

Regarding `CCCOC1Sc2nnc(CC)n2N=C1c1ccccc1` (stereo not drawn), the zone of inhibition at 2000 µg/mL with Bacillus subtilis [1] was 13.6 mm; in the test with Staphylococcus aureus [2], 14 mm. The MIC entry in the test on Candida albicans [5] and with Saccharomyces cerevisiae [7] was “inactive” throughout. For the same compound, the “diameter of the inhibition zone (DIZ)” value in the test with Saccharomyces cerevisiae [6] and in the test with Candida albicans [8] was “inactive” each time. For the same compound, the MIC in the test on Bacillus subtilis [3] and against Staphylococcus aureus [4] was 256 µg/mL (≈ 847 µM) throughout. Also, the result in the test with Escherichia coli and with Pseudomonas aeruginosa was inactive.

Consider `CCOC1Sc2nnc(CC)n2N=C1c1ccc(Br)cc1` (stereo not drawn), for which the zone of inhibition at 2000 µg/mL with Bacillus subtilis [1] came to 13.6 mm; with Staphylococcus aureus [2], 12.3 mm. The MIC result in the test with Candida albicans [5] and in the test on Saccharomyces cerevisiae [7] was “inactive” in each case. Moreover, the “diameter of the inhibition zone (DIZ)” value in the test on Saccharomyces cerevisiae [6] and with Candida albicans [8] was “inactive” in each case. Also, the MIC was 256 µg/mL (≈ 697 µM) in the test with Bacillus subtilis [3] and above 256 µg/mL against Staphylococcus aureus [4]. The result in the test with Escherichia coli and in the test on Pseudomonas aeruginosa was inactive.

As for `CCOC1Sc2nnc(-c3ccccc3)n2N=C1c1ccccc1` (stereo not drawn), the zone of inhibition at 2000 µg/mL came out at 17.6 mm in the test on Bacillus subtilis [1], 17.6 mm in the test with Saccharomyces cerevisiae [6], 24.3 mm in the test with Staphylococcus aureus [2] and 15.6 mm with Candida albicans [8]. For the same compound, the MIC was 64 µg/mL (≈ 190 µM) against Candida albicans [5]; 32 µg/mL (≈ 95.1 µM) against Saccharomyces cerevisiae [7] (MTCC 170, 24 h); 128 µg/mL (≈ 380 µM) in the test with Bacillus subtilis [3]; 16 µg/mL (≈ 47.6 µM) in the test with Staphylococcus aureus [4]. The outcome in the test with Escherichia coli and with Pseudomonas aeruginosa was inactive.

With `C[C@@H]1[C@H](O)[C@@H](C)/C=C/C=C/C=C/C=C/C=C/C=C/C=C/[C@H](O[C@@H]2O[C@H](C)[C@@H](O)[C@H](N)[C@@H]2O)C[C@@H]2O[C@](O)(C[C@@H](O)C[C@@H](O)[C@H](O)CC[C@@H](O)C[C@@H](O)CC(=O)O[C@H]1C)C[C@H](O)[C@H]2C(=O)O` [AMPHOTERICIN B], the MIC was found to be 100 µg/mL (≈ 108 µM) in the test on Candida albicans [5] and 100 µg/mL (≈ 108 µM) in the test with Saccharomyces cerevisiae [7] (MTCC 170, 24 h). Moreover, the figures for the zone of inhibition at 2000 µg/mL in the test with Saccharomyces cerevisiae [6] and in the test on Candida albicans [8] were 13.6 mm and 14.3 mm, respectively.

The values are drawn from ChEMBL document CHEMBL3046925, “,-Dibromoacetophenones mediated synthesis of some new 7H-7-alkoxy-3-alkyl/phenyl-6-aryl-s-triazolo[3,4-b][1,3,4]thiadiazines and their antimicrobial evaluation” (2012).
